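Where inhibition never reached the appropriate level, the endpoint shown equals the highest concentration tested. Otherwise, values were interpolated linearly from a five-concentration, 48-hour dose response in 96-well plates. GI50: concentration for 50% inhibition of growth. TGI is the concentration that stops growth completely.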
Legend:
Experiment in all cases: inhibition of tumour cell growth, NCI panel, 48 h
786-0 renal = system: 786-0 renal
A498 renal = system: A498 renal
A549 NSCLC = system: A549 NSCLC
ACHN renal = system: ACHN renal
BT-549 breast = system: BT-549 breast
CAKI-1 renal = system: CAKI-1 renal
CCRF-CEM leukemia = system: CCRF-CEM leukemia
COLO 205 colon = system: COLO 205 colon
DU-145 prostate = system: DU-145 prostate
EKVX NSCLC = system: EKVX NSCLC
HCC-2998 colon = system: HCC-2998 colon
HCT-116 colon = system: HCT-116 colon
HCT-15 colon = system: HCT-15 colon
HL-60(TB) leukemia = system: HL-60(TB) leukemia
HOP-62 NSCLC = system: HOP-62 NSCLC
HOP-92 NSCLC = system: HOP-92 NSCLC
HS 578T breast = system: HS 578T breast
HT29 colon = system: HT29 colon
IGROV1 ovarian = system: IGROV1 ovarian
K-562 leukemia = system: K-562 leukemia
KM12 colon = system: KM12 colon
LOX IMVI melanoma = system: LOX IMVI melanoma
M14 melanoma = system: M14 melanoma
MALME-3M melanoma = system: MALME-3M melanoma
MCF7 breast = system: MCF7 breast
MDA-MB-231 breast = system: MDA-MB-231 breast
MDA-MB-435 = system: MDA-MB-435
MDA-MB-468 breast = system: MDA-MB-468 breast
MOLT-4 leukemia = system: MOLT-4 leukemia
NCI-H226 lung = system: NCI-H226 lung
NCI-H23 lung = system: NCI-H23 lung
NCI-H460 lung = system: NCI-H460 lung
NCI-H522 lung = system: NCI-H522 lung
NCI/ADR-RES ovarian = system: NCI/ADR-RES ovarian
OVCAR-3 ovarian = system: OVCAR-3 ovarian
OVCAR-4 ovarian = system: OVCAR-4 ovarian
OVCAR-5 ovarian = system: OVCAR-5 ovarian
OVCAR-8 ovarian = system: OVCAR-8 ovarian
PC-3 prostate = system: PC-3 prostate
RPMI-8226 leukemia = system: RPMI-8226 leukemia
RXF 393 renal = system: RXF 393 renal
SF-268 CNS = system: SF-268 CNS
SF-295 CNS = system: SF-295 CNS
SF-539 CNS = system: SF-539 CNS
SK-MEL-2 melanoma = system: SK-MEL-2 melanoma
SK-MEL-28 melanoma = system: SK-MEL-28 melanoma
SK-MEL-5 melanoma = system: SK-MEL-5 melanoma
SK-OV-3 ovarian = system: SK-OV-3 ovarian
SN12C renal = system: SN12C renal
SNB-19 CNS = system: SNB-19 CNS
SNB-75 CNS = system: SNB-75 CNS
SR leukemia = system: SR leukemia
SW-620 colon = system: SW-620 colon
T-47D breast = system: T-47D breast
TK-10 renal = system: TK-10 renal
U251 CNS = system: U251 CNS
UACC-257 melanoma = system: UACC-257 melanoma
UACC-62 melanoma = system: UACC-62 melanoma
UO-31 renal = system: UO-31 renal

Compound `CC[C@]12C=CCN3CC[C@]4(C(=C(C(=O)OC)C1)Nc1cc(OC)c([C@@H]5[C@H]6O[C@H]6[C@@]6(CC)CC(C(=O)OC)=C7Nc8cc(O)ccc8[C@@]78CCN5[C@@H]68)cc14)[C@@H]32` has a GI50 (786-0 renal) of 5.71 µM, a TGI (786-0 renal) of 49.4 µM and a GI50 (A498 renal) of 13.1 µM. For the same compound, the TGI (A498 renal) was 40 µM, the GI50 (A549 NSCLC) was 4.56 µM and the TGI (A549 NSCLC) was > 56.5 µM. For the same compound, the GI50 (ACHN renal) was 6.67 µM, the TGI (ACHN renal) was 20.3 µM and the GI50 (BT-549 breast) was 6.27 µM. For the same compound, the TGI (BT-549 breast) was 18.9 µM, the GI50 (CAKI-1 renal) was 4 µM and the TGI (CAKI-1 renal) was 50.1 µM. The GI50 (CCRF-CEM leukemia) was 2.19 µM, the TGI (CCRF-CEM leukemia) was > 56.5 µM and the GI50 (COLO 205 colon) was 10.4 µM. For the same compound, the TGI (COLO 205 colon) was 24 µM, the GI50 (DU-145 prostate) was 12.3 µM and the TGI (DU-145 prostate) was 50 µM. It also gave a GI50 (EKVX NSCLC) of 3.7 µM, a TGI (EKVX NSCLC) of 31.7 µM and a GI50 (HCC-2998 colon) of 3.32 µM. For the same compound, the TGI (HCC-2998 colon) was 10.9 µM, the GI50 (HCT-116 colon) was 2.17 µM and the TGI (HCT-116 colon) was 12.6 µM. The GI50 (HCT-15 colon) was 2.91 µM, the TGI (HCT-15 colon) was 11.4 µM and the GI50 (HL-60(TB) leukemia) was 1.78 µM. It also gave a TGI (HL-60(TB) leukemia) of 8.34 µM, a GI50 (HOP-62 NSCLC) of 12.9 µM and a TGI (HOP-62 NSCLC) of 27.5 µM. It also gave a GI50 (HOP-92 NSCLC) of 5.99 µM, a TGI (HOP-92 NSCLC) of 14.3 µM and a GI50 (HS 578T breast) of 11.7 µM. For the same compound, the TGI (HS 578T breast) was > 56.5 µM, the GI50 (HT29 colon) was 6.12 µM and the TGI (HT29 colon) was 18.9 µM. For the same compound, the GI50 (IGROV1 ovarian) was 8.95 µM, the TGI (IGROV1 ovarian) was 25 µM and the GI50 (K-562 leukemia) was 1.91 µM. It also gave a TGI (K-562 leukemia) of 12.4 µM, a GI50 (KM12 colon) of 3.27 µM and a TGI (KM12 colon) of 14.9 µM. The GI50 (LOX IMVI melanoma) was 3.11 µM, the TGI (LOX IMVI melanoma) was 10.5 µM and the GI50 (M14 melanoma) was 2.91 µM. The TGI (M14 melanoma) was 16.3 µM, the GI50 (MALME-3M melanoma) was 5.97 µM and the TGI (MALME-3M melanoma) was 12.8 µM. The GI50 (MCF7 breast) was 1.73 µM, the TGI (MCF7 breast) was 11.6 µM and the GI50 (MDA-MB-231 breast) was 6.8 µM. For the same compound, the TGI (MDA-MB-231 breast) was 13.9 µM, the GI50 (MDA-MB-435) was 3.71 µM and the TGI (MDA-MB-435) was 14.2 µM. For the same compound, the GI50 (MDA-MB-468 breast) was 1.11 µM, the TGI (MDA-MB-468 breast) was 7.28 µM and the GI50 (MOLT-4 leukemia) was 1.34 µM. It also gave a TGI (MOLT-4 leukemia) of 6.82 µM, a GI50 (NCI-H226 lung) of 5.95 µM and a TGI (NCI-H226 lung) of 15 µM. It also gave a GI50 (NCI-H23 lung) of 6.13 µM, a TGI (NCI-H23 lung) of 18.8 µM and a GI50 (NCI-H460 lung) of 2.87 µM. The TGI (NCI-H460 lung) was 10.9 µM, the GI50 (NCI-H522 lung) was 2.41 µM and the TGI (NCI-H522 lung) was 11.6 µM. For the same compound, the GI50 (NCI/ADR-RES ovarian) was 7.86 µM, the TGI (NCI/ADR-RES ovarian) was 26.8 µM and the GI50 (OVCAR-3 ovarian) was 3.92 µM. For the same compound, the TGI (OVCAR-3 ovarian) was 12.1 µM, the GI50 (OVCAR-4 ovarian) was 5.68 µM and the TGI (OVCAR-4 ovarian) was > 56.5 µM. The GI50 (OVCAR-5 ovarian) was 10.5 µM, the TGI (OVCAR-5 ovarian) was 27.5 µM and the GI50 (OVCAR-8 ovarian) was 12.4 µM. The TGI (OVCAR-8 ovarian) was > 56.5 µM, the GI50 (PC-3 prostate) was 1.99 µM and the TGI (PC-3 prostate) was 16.7 µM. For the same compound, the GI50 (RPMI-8226 leukemia) was 1.53 µM, the TGI (RPMI-8226 leukemia) was > 56.5 µM and the GI50 (RXF 393 renal) was 2.6 µM. It also gave a TGI (RXF 393 renal) of 12.5 µM, a GI50 (SF-268 CNS) of 5.6 µM and a TGI (SF-268 CNS) of 43.5 µM. For the same compound, the GI50 (SF-295 CNS) was 5 µM, the TGI (SF-295 CNS) was 15.3 µM and the GI50 (SF-539 CNS) was 10.8 µM. It also gave a TGI (SF-539 CNS) of 27.4 µM, a GI50 (SK-MEL-2 melanoma) of 8.75 µM and a TGI (SK-MEL-2 melanoma) of 19.8 µM. The GI50 (SK-MEL-28 melanoma) was 7.57 µM, the TGI (SK-MEL-28 melanoma) was 24.5 µM and the GI50 (SK-MEL-5 melanoma) was 3.66 µM. For the same compound, the TGI (SK-MEL-5 melanoma) was 11.4 µM, the GI50 (SK-OV-3 ovarian) was 17.7 µM and the TGI (SK-OV-3 ovarian) was > 56.5 µM. For the same compound, the GI50 (SN12C renal) was 6.01 µM, the TGI (SN12C renal) was 15.3 µM and the GI50 (SNB-19 CNS) was 14.6 µM. The TGI (SNB-19 CNS) was > 56.5 µM, the GI50 (SNB-75 CNS) was 2.95 µM and the TGI (SNB-75 CNS) was > 56.5 µM. It also gave a GI50 (SR leukemia) of 2.18 µM, a TGI (SR leukemia) of 21.7 µM and a GI50 (SW-620 colon) of 5.67 µM. The TGI (SW-620 colon) was 14.6 µM, the GI50 (T-47D breast) was 1.9 µM and the TGI (T-47D breast) was 23.8 µM. For the same compound, the GI50 (TK-10 renal) was 21.2 µM, the TGI (TK-10 renal) was > 56.5 µM and the GI50 (U251 CNS) was 4.33 µM. For the same compound, the TGI (U251 CNS) was 14.6 µM, the GI50 (UACC-257 melanoma) was 4.3 µM and the TGI (UACC-257 melanoma) was 15.5 µM. It also gave a GI50 (UACC-62 melanoma) of 3.27 µM, a TGI (UACC-62 melanoma) of 11.6 µM and a GI50 (UO-31 renal) of 4.31 µM. It also gave a TGI (UO-31 renal) of 13.8 µM.
